According to patent publication US12030880B2, “Iminosulfanone compound as bromodomain protein inhibitor and pharmaceutical composition and medical use thereof” (CHIA TAI TIANQING PHARMACEUTICAL GROUP CO., LTD., priority 2018, dated 2024):

Assays:
Kasumi-1 cells = assay: Cell proliferation activity assay in Kasumi-1; format: cell-based; details: Homo sapiens, inhibiting cell proliferation, 72 hours, Cell-Titer Blue
Procedure: (§1) Human acute myeloblastic leukemia cell line Kasumi-1 cells were cultured in PRIM1640 medium plus 20% fetal bovine serum (FBS, purchased from Biological Industries, BI) and 1% penicillin/streptomycin double antibody (P/S, purchased from Life Technology) at 37° C. with 5% CO2. On the day before the compound test, Kasumi-1 cells were spread in a 96-well plate (purchased from Corning) at a concentration of 5000 cells/195 μL/well. After 24 hours, the compound was serially diluted 4-fold with 100% DMSO starting from 10 mM (9 concentrations in total), and then 2 μL of the compound at each concentration was added to 48 μL of PRIM1640 medium for dilution. 5 μL of the diluted compound at each concentration was added to the wells spread with the cell suspension, and the compound and cells were co-incubated in a cell incubator for 72 hours (3 days). Then the mixture was added with 35 μL of Cell-Titer Blue reagent (purchased from Promega) and incubated for another 4 hours. The fluorescence values (excited at 560 nm, detected at 590 nm) were then read on Flexstation III, and the data were calculated using GraphPad Prism software to give IC50 value of the compound in inhibiting cell proliferation.

MV4-11 cells = assay: Cell proliferation activity assay in MV4-11; format: cell-based; details: Homo sapiens, inhibiting cell proliferation, 72 hours, Cell-Titer Blue
Procedure: as §1, with “lymphoblastic” for “myeloblastic”, “MV4-11” for “Kasumi-1”, “10%” for “20%”, “8000” for “5000”

BRD4 (BD2) = BRD4 (BD2) (Homo sapiens (Human), UniProt O60885); assay: In vitro BRD4 (BD2) enzymatic activity assay (HTRF); format: binding; details: GST-BRD4 (BD2, 349-460 aa)
Procedure: In the present application, IC50 values of the compounds in inhibiting BRD4 (BD2) enzyme binding reaction were determined by homogeneous time resolved fluorescence (HTRF). A compound was serially diluted 5-fold with 100% DMSO starting from 1 mM (7 concentrations in total), and then 2 μL of the compound at each concentration was added to 18 μL of a reaction buffer (20 mM HEPES pH 7.5, 150 mM NaCl, 5 mM DTT, 0.005% Tween 20, and 100 μg/mL BSA) for dilution. After being mixed well, 2 μL of the compound at each concentration was added to 48 μL of the above reaction buffer for dilution, and mixed well (final concentration of the compound in DMSO: 0.1%). 2.5 μL of the resulting mixture was added to a 384-well plate (OptiPlate-384, purchased from PerkinElmer), then 5 μL of GST-BRD4 (BD2, 349-460 aa) (final concentration: 2 nM) was added, and the resulting mixture was centrifuged, and fully mixed. 2.5 μL of a peptide Biotin-AHA-SGRGK(Ac)GGK(Ac)GLGK(Ac)GGAK(Ac) RHRKV (final concentration: 200 nM) was then added to initiate the reaction (total reaction volume: 10 μL). The 384-well plate was placed in an incubator at 23° C. to react for 1 hour, and then 5 μL of Eu3+ cryptate-labled anti-GST antibody (purchased from Cisbio) and 5 μL of Streptavidin-XL-665 (purchased from Cisbio) were added to terminate the reaction. After being incubated in the incubator for another 1 hour, the fluorescence values (excited at 320 nm, emitted light at 665 nm and 620 nm being detected, and the ratio of the two being the enzyme binding signal) were read on Envision (purchased from PerkinElmer). The binding strength of each compound to BRD4 (BD2) protein was determined respectively at 7 concentrations, and the data were calculated using GraphPad Prism software to obtain the IC50 value of the compound.

BRD4 (BD1) = BRD4 (BD1) (Homo sapiens (Human), UniProt O60885); assay: In vitro BRD4 (BD1) enzymatic activity assay (HTRF); format: binding; details: GST-BRD4 (BD1, 44-168 aa)
Procedure: In the present application, IC50 values of the compounds in inhibiting BRD4 (BD1) enzyme binding reaction were determined by homogeneous time resolved fluorescence (HTRF). A compounds was serially diluted 5-fold with 100% DMSO starting from 0.2 mM (7 concentrations in total), and then 2 μL of the compound at each concentration was added to 48 μL of a reaction buffer (20 mM HEPES pH 7.5, 150 mM NaCl, 5 mM DTT, 0.005% Tween 20, and 100 μg/mL BSA) for dilution, and mixed well. 2.5 μL of the resulting mixture was added to a 384-well plate (OptiPlate-384, purchased from PerkinElmer), then 5 μL of GST-BRD4 (BD1, 44-168 aa) (final concentration: 1 nM) was added, and the resulting mixture was centrifuged, and fully mixed. 2.5 μL of a short peptide Biotin-AHA-SGRGK(Ac)GGK(Ac)GLGK(Ac)GGAK(Ac) RHRKV (final concentration: 100 nM) was then added to initiate the reaction (total reaction volume: 10 μL). The 384-well plate was placed in an incubator at 23° C. to react for 1 hour, and then 5 μL of Eu3+ cryptate-labled anti-GST antibody (purchased from Cisbio) and 5 μL of Streptavidin-XL-665 (purchased from Cisbio) were added to terminate the reaction. After being incubated in the incubator for another 1 hour, the fluorescence values (excited at 320 nm, emitted light at 665 nm and 620 nm being detected, and the ratio of the two being the enzyme binding signal) were read on Envision (purchased from PerkinElmer). The binding strength of each compound to BRD4 (BD1) protein was determined respectively at 7 concentrations, and the data were calculated using GraphPad Prism software to obtain the IC50 value of the compound.

**Q.** Which IC50 (Kasumi-1 cells) does the source give for `CCNC(=O)c1cc2c(-c3cc(N=S(C)(C)=O)ccc3Oc3ccc(S(C)(=O)=O)cc3)cn(C)c(=O)c2[nH]1` [Example 1, 4-{5-{[dimethyl(oxo)-λ^6-sulfanylidene]amino}-2-[4-(methylsulfonyl)phenoxy]phenyl}-N-ethyl-6-methyl-7-oxo-6,7-dihydro-1H-pyrrolo[2,3-c]pyridine-2-carboxamide] here?
**A.** Its IC50 is 322 nM.

**Q.** And the IC50 (MV4-11 cells)?
**A.** The IC50 was 124 nM.

**Q.** Which IC50 (Kasumi-1 cells) does the source give for `Cn1cc(-c2cc(N=S(C)(C)=O)ccc2Oc2ccc(C#N)cc2F)c2cc[nH]c2c1=O` [Example 2, 4-{4-{[dimethyl(oxo)-λ^6-sulfanylidene]amino}-2-(6-methyl-7-oxo-6,7-dihydro-1H-pyrrolo[2,3-c]pyridin-4-yl)phenoxy}-3-fluorobenzonitrile] here?
**A.** The IC50 was 6.6 nM.

**Q.** And the IC50 (MV4-11 cells)?
**A.** Its IC50 is 15.1 nM.

**Q.** How did the IC50 (BRD4 (BD2)) turn out when `Cn1cc(-c2cc(N=S(C)(C)=O)ccc2Oc2ccc(S(C)(=O)=O)cc2)c2cc[nH]c2c1=O` [Example 3, 4-{5-{[dimethyl(oxo)-λ^6-sulfanylidene]amino}-2-[4-(methylsulfonyl)phenoxy]phenyl}-6-methyl-1,6-dihydro-7H-pyrrolo[2,3-c]pyridin-7-one] was run?
**A.** The IC50 was 0.45 nM.

**Q.** And the IC50 (Kasumi-1 cells)?
**A.** Its IC50 is 155 nM.

**Q.** What about the IC50 (BRD4 (BD1)) of the same molecule?
**A.** The IC50 was 7.7 nM.

**Q.** And the IC50 (MV4-11 cells)?
**A.** Its IC50 is 30.9 nM.

**Q.** With `Cc1cccc(Cl)c1Oc1ccc(N=S(C)(C)=O)cc1-c1cn(C)c(=O)c2[nH]ccc12` [Example 6, 4-{2-(2-chloro-6-methylphenoxy)-5-[dimethyl(oxo)-λ^6-sulfanylidene]aminophenyl}-6-methyl-1,6-dihydro-7H-pyrrolo[2,3-c]pyridin-7-one] as the molecule, how does the IC50 (BRD4 (BD2)) read?
**A.** The IC50 was 0.93 nM.

**Q.** What about the IC50 (Kasumi-1 cells) of the same molecule?
**A.** Its IC50 is 13.6 nM.

**Q.** What about the IC50 (BRD4 (BD1)) of the same molecule?
**A.** The IC50 was 26.4 nM.

**Q.** And the IC50 (MV4-11 cells)?
**A.** Its IC50 is 90.4 nM.

**Q.** How did the IC50 (BRD4 (BD2)) turn out when `CCNC(=O)c1cc2c(-c3cc(N=S(C)(C)=O)ccc3Oc3c(C)cccc3Cl)cn(C)c(=O)c2[nH]1` [Example 7, 4-{2-(2-chloro-6-methylphenoxy)-5-{[dimethyl(oxo)-λ^6-sulfanylidene]amino}phenyl}-N-ethyl-6-methyl-7-oxo-6,7-dihydro-1H-pyrrolo[2,3-c]pyridine-2-carboxamide] was run?
**A.** Its IC50 is 0.34 nM.

**Q.** And the IC50 (Kasumi-1 cells)?
**A.** Its IC50 is 2.3 nM.

**Q.** What about the IC50 (BRD4 (BD1)) of the same molecule?
**A.** The IC50 was 24.3 nM.

**Q.** And the IC50 (MV4-11 cells)?
**A.** The IC50 was 152 nM.

**Q.** With `Cn1cc(-c2cc(N=S(C)(C)=O)ccc2Nc2ccc(F)cc2F)c2cc[nH]c2c1=O` [Example 8, 4-{2-(2,4-difluorophenyl)amino-5-[dimethyl(oxo)-λ^6-sulfanylidene]aminophenyl}-6-methyl-1,6-dihydro-7H-pyrrolo[2,3-c]pyridin-7-one] as the molecule, how does the IC50 (BRD4 (BD2)) read?
**A.** The IC50 was 1.3 nM.

**Q.** And the IC50 (Kasumi-1 cells)?
**A.** The IC50 was 9.3 nM.

**Q.** And the IC50 (BRD4 (BD1))?
**A.** The IC50 was 2.4 nM.

**Q.** And the IC50 (MV4-11 cells)?
**A.** The IC50 was 16.1 nM.

**Q.** With `Cc1ncccc1Oc1ccc(N=S(C)(C)=O)cc1-c1cn(C)c(=O)c2[nH]ccc12` [Example 9, 4-{5-{[dimethyl(oxo)-λ^6-sulfanylidene]amino}-2-[(2-methyl-pyridin-3-yl)oxy]phenyl}-6-methyl-1,6-dihydro-7H-pyrrolo[2,3-c]pyridin-7-one] as the molecule, how does the IC50 (BRD4 (BD2)) read?
**A.** The IC50 was 0.75 nM.

**Q.** And the IC50 (BRD4 (BD1))?
**A.** Its IC50 is 3 nM.

**Q.** With `CCNC(=O)c1cc2c(-c3cc(N=S(C)(C)=O)ccc3Oc3c(C)cc(F)cc3C)cn(C)c(=O)c2[nH]1` [Example 10, 4-{5-{[dimethyl(oxo)-λ^6-sulfanylidene]amino}-2-(4-fluoro-2,6-dimethylphenoxy)phenyl}-N-ethyl-6-methyl-7-oxo-6,7-dihydro-1H-pyrrolo[2,3-c]pyridine-2-carboxamide] as the molecule, how does the IC50 (BRD4 (BD2)) read?
**A.** Its IC50 is 0.53 nM.

**Q.** What about the IC50 (Kasumi-1 cells) of the same molecule?
**A.** The IC50 was 66.3 nM.

**Q.** What about the IC50 (BRD4 (BD1)) of the same molecule?
**A.** The IC50 was 96.3 nM.

**Q.** What about the IC50 (MV4-11 cells) of the same molecule?
**A.** Its IC50 is 240 nM.

**Q.** With `Cc1cc(F)cc(C)c1Oc1ccc(N=S(C)(C)=O)cc1-c1cn(C)c(=O)c2[nH]ccc12` [Example 11, 4-{5-{[dimethyl(oxo)-λ^6-sulfanylidene]amino}-2-(4-fluoro-2,6-dimethylphenoxy)phenyl}-6-methyl-1,6-dihydro-7H-pyrrolo[2,3-c]pyridin-7-one] as the molecule, how does the IC50 (BRD4 (BD2)) read?
**A.** Its IC50 is 1.3 nM.

**Q.** What about the IC50 (Kasumi-1 cells) of the same molecule?
**A.** The IC50 was 53.2 nM.

**Q.** And the IC50 (BRD4 (BD1))?
**A.** Its IC50 is 29.4 nM.

**Q.** What about the IC50 (MV4-11 cells) of the same molecule?
**A.** The IC50 was 124 nM.

**Q.** `Cn1cc(-c2cc(N=S(C)(C)=O)ccc2OCC2CCOC2)c2cc[nH]c2c1=O` (stereo not shown) [Example 12, 4-{5-{[dimethyl(oxo)-λ^6-sulfanylidene]amino}-2-[(tetrahydrofuran-3-yl)methoxy]phenyl}-6-methyl-1,6-dihydro-7H-pyrrolo[2,3-c]pyridin-7-one] was tested. Which IC50 (BRD4 (BD2)) did it give?
**A.** The IC50 was 1.1 nM.

**Q.** And the IC50 (Kasumi-1 cells)?
**A.** Its IC50 is 20.7 nM.

**Q.** What about the IC50 (BRD4 (BD1)) of the same molecule?
**A.** Its IC50 is 4.1 nM.

**Q.** And the IC50 (MV4-11 cells)?
**A.** Its IC50 is 27.8 nM.

**Q.** Which results are given for `CCOC(=O)c1cc2c(-c3cc(N=S(C)(C)=O)ccc3Oc3c(C)cc(F)cc3C)cn(C)c(=O)c2[nH]1` [Example 14, Ethyl 4-{5-{[dimethyl(oxo)-λ^6-sulfanylidene]amino}-2-(4-fluoro-2,6-dimethylphenoxy)phenyl}-6-methyl-7-oxo-6,7-dihydro-1H-pyrrolo[2,3-c]pyridine-2-carboxylate]?
**A.** IC50 (BRD4 (BD2)): 4 nM; IC50 (Kasumi-1 cells): 72 nM; IC50 (BRD4 (BD1)): 27.9 nM; IC50 (MV4-11 cells): 139 nM

**Q.** How did the IC50 (BRD4 (BD2)) turn out when `Cn1cc(-c2cc(N=S3(=O)CCCC3)ccc2Oc2ccc(F)cc2F)c2cc[nH]c2c1=O` [Example 15, 4-{2-(2,4-difluorophenoxy)-5-[(1-oxidotetrahydro-1λ^6-thiophen-1-ylidene)amino]phenyl}-6-methyl-1,6-dihydro-7H-pyrrolo[2,3-c]pyridin-7-one] was run?
**A.** Its IC50 is 1.2 nM.

**Q.** What about the IC50 (Kasumi-1 cells) of the same molecule?
**A.** The IC50 was 13.7 nM.

**Q.** What about the IC50 (BRD4 (BD1)) of the same molecule?
**A.** Its IC50 is 4.5 nM.

**Q.** And the IC50 (MV4-11 cells)?
**A.** The IC50 was 9.1 nM.

**Q.** What does the source list for `Cc1cn(-c2ccc(N=S(C)(C)=O)cc2-c2cn(C)c(=O)c3[nH]ccc23)ccc1=O` [Example 17, 4-{5-{[dimethyl(oxo)-λ^6-sulfanylidene]amino}-2-[3-methyl-4-oxopyridin-1(4H)-yl]phenyl}-6-methyl-1,6-dihydro-7H-pyrrolo[2,3-c]pyridin-7-one]?
**A.** IC50 (BRD4 (BD2)): 4 nM; IC50 (BRD4 (BD1)): 330 nM

**Q.** Which IC50 (BRD4 (BD2)) does the source give for `Cc1cc(F)cc(C)c1Oc1ccc(N=S(C)(C)=O)cc1-c1cn(C)c(=O)c2[nH]c(C(=O)NCC(F)(F)F)cc12` [Example 22, 4-{5-{[dimethyl(oxo)-λ^6-sulfanylidene]amino}-2-(4-fluoro-2,6-dimethylphenoxy)phenyl}-6-methyl-7-oxo-N-(2,2,2-trifluoroethyl)-6,7-dihydro-1H-pyrrolo[2,3-c]pyridine-2-carboxamide] here?
**A.** Its IC50 is 0.88 nM.

**Q.** And the IC50 (BRD4 (BD1))?
**A.** Its IC50 is 188 nM.
